{
  "source": "patent US20230026259A1",
  "about": "“CA2 COMPOSITIONS AND METHODS FOR TUNABLE REGULATION” (Obsidian Therapeutics, Inc., priority 2019, published 2023)",
  "key": {"T cells": {"test_system": "T cells", "assay": "CD40L expression of CA2 regulated CD40L constructs in T cells by FACS (dose response, time course)", "format": "cell-based", "conditions": "24 hours", "description": "CD40L constructs regulated by Carbonic anhydrase DDs were generated and cloned into lentiviral vectors. Purified T cells were thawed and cultured with aCD3 aCD28 Dynabeads (in the ratio of 3 beads to 1 T cell).\nThe constructs were transduced in T cells the next day. […]"}, "NIH3T3 cells": {"test_system": "NIH3T3 cells", "assay": "Dose response of saturation library constructs to Acetazolamide or Celecoxib, GFP MFI by FACS", "format": "cell-based", "conditions": "Acetazolamide vs Celecoxib, 24 hours", "description": "The MFI values obtained with Acetazolamide were much higher than the MFIs obtained with Celecoxib treatment."}, "human primary T cells": {"test_system": "human primary T cells", "assay": "IL15-dependent expansion: T cell numbers and CD4/CD8 ratio by flow cytometry", "format": "cell-based", "conditions": "continuous Acetazolamide in culture, 10 days", "description": "To test IL15-dependent expansion, beads were removed on day 10 and cells were washed. […] The T cell numbers (Table 30) and the change in CD4/CD8 ratio (Table 31) were determined by flow cytometry."}, "[1]": {"assay": "Plasma concentration of acetazolamide after single and repeated oral doses", "format": "in vivo, mice", "conditions": "oral 200 mg/kg, up to 100 hr"}, "[2]": {"assay": "Body weights after repeated daily doses of acetazolamide", "description": "Body weights were measured for up to 12 days post daily repeated doses on days 0-4 and 8-11 (data not shown).\nDose responsiveness of OT-002175 was tested by measuring total flux in mice receiving repeated ligand dosing for up to 32 days post tumor implant (data not shown)."}, "[3]": {"test_system": "Activated T cells from human donor", "assay": "Cell surface CAR expression of CA2 regulated CAR constructs (CD19-Fc staining)", "format": "cell-based", "conditions": "T cells, 10 μM ligand overnight, day 7 and 9", "description": "CA2 DD described herein were operably linked to CARs to generate tunable CAR constructs. Activated T cells from human donor were transduced with 10 μL of lentivirus for indicated constructs. […] Cell surface CAR expression was detected the following day by staining the cells with 10 ug/mL CD19-Fc followed by an anti-human-BV421 conjugated secondary antibody. Histograms were plotted from a live cell gate. Similar experiments were also performed at day 8 and the cells were harvested at day 9. The data are shown in Table 20 as percentage CAR positive cells. The stabilization ratio was also calculated and is included in Table 20 as SR.\nActivated T cells from human donor were transduced with 10 μL of lentivirus for indicated constructs. […] Cell surface CAR expression was detected the following day by staining the cells with 10 ug/mL CD19-Fc followed by an anti-human-BV421 conjugated secondary antibody. The percent of ligand induced CAR+ cells are plotted from a live cell gate relative to vehicle treated negative control cells."}, "[4]": {"conditions": "CD4+ T cells with OT-001990, Acetazolamide 0.01 μM"}, "[5]": {"conditions": "CD4+ T cells with OT-001990, Acetazolamide 0.2 μM"}, "[6]": {"conditions": "CD4+ T cells with OT-001990, Acetazolamide 0.8 μM"}, "[7]": {"conditions": "CD4+ T cells with OT-001990, Acetazolamide 3.1 μM"}, "[8]": {"conditions": "CD4+ T cells with OT-001990, Acetazolamide 12.5 μM"}, "[9]": {"conditions": "CD4+ T cells with OT-001990, Acetazolamide 50 μM"}, "[10]": {"conditions": "CD8+ T cells with OT-001990, Acetazolamide 0.01 μM"}, "[11]": {"conditions": "CD8+ T cells with OT-001990, Acetazolamide 0.05 μM"}, "[12]": {"conditions": "CD8+ T cells with OT-001990, Acetazolamide 0.2 μM"}, "[13]": {"conditions": "CD8+ T cells with OT-001990, Acetazolamide 0.8 μM"}, "[14]": {"conditions": "CD8+ T cells with OT-001990, Acetazolamide 3.1 μM"}, "[15]": {"conditions": "CD8+ T cells with OT-001990, Acetazolamide 12.5 μM"}, "[16]": {"conditions": "CD8+ T cells with OT-001990, Acetazolamide 50 μM"}},
  "data": [
    {"smiles": "CC(=O)Nc1nnc(S(N)(=O)=O)s1", "note": "[Acetazolamide, reference compound]", "values": [
      {"measurement": "CD40L MFI", "setting": "T cells; [4]", "value": 112},
      {"measurement": "Percentage CD40L positive cells", "setting": "T cells; [4]", "value": 4.13, "unit": "%"},
      {"measurement": "Percentage CD40L positive cells", "setting": "T cells; CD4+ T cells with OT-001990, Acetazolamide 0.05 μM", "value": 5.44, "unit": "%"},
      {"measurement": "CD40L MFI", "setting": "T cells; [5]", "value": 185},
      {"measurement": "Percentage CD40L positive cells", "setting": "T cells; [5]", "value": 10.3, "unit": "%"},
      {"measurement": "CD40L MFI", "setting": "T cells; [6]", "value": 481},
      {"measurement": "Percentage CD40L positive cells", "setting": "T cells; [6]", "value": 45.6, "unit": "%"},
      {"measurement": "CD40L MFI", "setting": "T cells; [7]", "value": 840},
      {"measurement": "Percentage CD40L positive cells", "setting": "T cells; [7]", "value": 69.3, "unit": "%"},
      {"measurement": "CD40L MFI", "setting": "T cells; [8]", "value": 2783},
      {"measurement": "Percentage CD40L positive cells", "setting": "T cells; [8]", "value": 90.3, "unit": "%"},
      {"measurement": "CD40L MFI", "setting": "T cells; [9]", "value": 3728},
      {"measurement": "Percentage CD40L positive cells", "setting": "T cells; [9]", "value": 91.1, "unit": "%"},
      {"measurement": "CD40L MFI", "setting": "T cells; [10]", "value": 105},
      {"measurement": "Percentage CD40L positive cells", "setting": "T cells; [10]", "value": 0.59, "unit": "%"},
      {"measurement": "CD40L MFI", "setting": "T cells; [11]", "value": 104},
      {"measurement": "Percentage CD40L positive cells", "setting": "T cells; [11]", "value": 0.44, "unit": "%"},
      {"measurement": "CD40L MFI", "setting": "T cells; [12]", "value": 136},
      {"measurement": "Percentage CD40L positive cells", "setting": "T cells; [12]", "value": 1.48, "unit": "%"},
      {"measurement": "CD40L MFI", "setting": "T cells; [13]", "value": 307},
      {"measurement": "Percentage CD40L positive cells", "setting": "T cells; [13]", "value": 25.2, "unit": "%"},
      {"measurement": "CD40L MFI", "setting": "T cells; [14]", "value": 380},
      {"measurement": "Percentage CD40L positive cells", "setting": "T cells; [14]", "value": 41.2, "unit": "%"},
      {"measurement": "CD40L MFI", "setting": "T cells; [15]", "value": 1599},
      {"measurement": "Percentage CD40L positive cells", "setting": "T cells; [15]", "value": 77.2, "unit": "%"},
      {"measurement": "CD40L MFI", "setting": "T cells; [16]", "value": 2184},
      {"measurement": "Percentage CD40L positive cells", "setting": "T cells; [16]", "value": 80.7, "unit": "%"},
      {"measurement": "MFI values obtained with one ligand compared with the other", "setting": "NIH3T3 cells", "value": "much higher"},
      {"measurement": "T cell expansion", "setting": "human primary T cells", "value": 3.6, "unit": "fold"},
      {"measurement": "daily 1 hr Cmax values after repeated doses", "setting": "[1]", "value": "do not elevate daily 1 hr Cmax values"},
      {"measurement": "effects on body weight in efficacy study", "setting": "[2]; 30, 100 and 200 mg/kg acetazolamide", "value": "comparable effects on body weight"},
      {"measurement": "body weight changes from dosing", "setting": "[2]; oral 200 mg/kg, daily repeated doses on days 0-4 and 8-11", "value": "begin to level off by the end of the first week of daily doses"},
      {"measurement": "CAR regulation compared between ligands", "setting": "[3]", "value": "Greater CAR regulation"}
    ]}
  ]
}
